Here are results for one compound from patent US20220281846A1, “COMPOUNDS AND COMPOSITIONS FOR THE TREATMENT OF RESPIRATORY DISEASES” (THE UNIVERSITY OF MELBOURNE, priority 2018, published 2022).

The target in one test is T1, ERBB4/HER4 (Homo sapiens, UniProt Q15303).
T1 construct: purchased Reaction Biology Corp
Briefly: Kinase inhibition assay (HotSpot), ERBB4/HER4. The settings on record: 10 μM ATP, 10-dose IC50 mode; read-out: Compound IC50 (M) ERBB4/HER4. The test is classed as biochemical.

Test [1] has as its system interleukin-1α (IL1α)-mediated cytokine production by the lung adenocarcinoma cell line A549. The experiment in a line: Cellular assay (A549) against IL1α-mediated cytokine production. The test is classed as cell-based, human. The settings on record: serum starved A549 cells, compound 30 min prior to IL-1α (1 ng/ml) for 24 h, ELISA. Here is the method:
Cellular Assay (A549 Human Lung Adenocarcinoma Cells) Assessing Effect of ZH3-138, ZH3-126 and PF670462 Against IL1α-Mediated Cytokine Production
The anti-inflammatory potential of selected compounds was examined by establishing the effects on interleukin-1α (IL1α)-mediated cytokine production by the lung adenocarcinoma cell line A549. Serum starved A549 cells were treated with various concentrations of the relevant CK1δ inhibitor (PF670462, ZH3-126 and ZH3-138) 30 min prior to IL-1α (1 ng/ml) for 24 h. Supernatant was collected and concentration of IL-6, IL-8 and GM-CSF was detected by ELISA. Data are presented as mean±SEM across three replicates in FIG. 7 (A: IL-6; B: IL-8 and C: GM-CSF).

A further test addresses T2, MINK/MINK1 (Homo sapiens, UniProt Q8N4C8).
T2 construct: purchased Reaction Biology Corp
The experiment in a line: Kinase inhibition assay (HotSpot), MINK/MINK1. The test is classed as biochemical. Particulars: 10 μM ATP, 10-dose IC50 mode; read-out: Compound IC50 (M) MINK/MINK1.

T1 sequence (Q15303 26-1308): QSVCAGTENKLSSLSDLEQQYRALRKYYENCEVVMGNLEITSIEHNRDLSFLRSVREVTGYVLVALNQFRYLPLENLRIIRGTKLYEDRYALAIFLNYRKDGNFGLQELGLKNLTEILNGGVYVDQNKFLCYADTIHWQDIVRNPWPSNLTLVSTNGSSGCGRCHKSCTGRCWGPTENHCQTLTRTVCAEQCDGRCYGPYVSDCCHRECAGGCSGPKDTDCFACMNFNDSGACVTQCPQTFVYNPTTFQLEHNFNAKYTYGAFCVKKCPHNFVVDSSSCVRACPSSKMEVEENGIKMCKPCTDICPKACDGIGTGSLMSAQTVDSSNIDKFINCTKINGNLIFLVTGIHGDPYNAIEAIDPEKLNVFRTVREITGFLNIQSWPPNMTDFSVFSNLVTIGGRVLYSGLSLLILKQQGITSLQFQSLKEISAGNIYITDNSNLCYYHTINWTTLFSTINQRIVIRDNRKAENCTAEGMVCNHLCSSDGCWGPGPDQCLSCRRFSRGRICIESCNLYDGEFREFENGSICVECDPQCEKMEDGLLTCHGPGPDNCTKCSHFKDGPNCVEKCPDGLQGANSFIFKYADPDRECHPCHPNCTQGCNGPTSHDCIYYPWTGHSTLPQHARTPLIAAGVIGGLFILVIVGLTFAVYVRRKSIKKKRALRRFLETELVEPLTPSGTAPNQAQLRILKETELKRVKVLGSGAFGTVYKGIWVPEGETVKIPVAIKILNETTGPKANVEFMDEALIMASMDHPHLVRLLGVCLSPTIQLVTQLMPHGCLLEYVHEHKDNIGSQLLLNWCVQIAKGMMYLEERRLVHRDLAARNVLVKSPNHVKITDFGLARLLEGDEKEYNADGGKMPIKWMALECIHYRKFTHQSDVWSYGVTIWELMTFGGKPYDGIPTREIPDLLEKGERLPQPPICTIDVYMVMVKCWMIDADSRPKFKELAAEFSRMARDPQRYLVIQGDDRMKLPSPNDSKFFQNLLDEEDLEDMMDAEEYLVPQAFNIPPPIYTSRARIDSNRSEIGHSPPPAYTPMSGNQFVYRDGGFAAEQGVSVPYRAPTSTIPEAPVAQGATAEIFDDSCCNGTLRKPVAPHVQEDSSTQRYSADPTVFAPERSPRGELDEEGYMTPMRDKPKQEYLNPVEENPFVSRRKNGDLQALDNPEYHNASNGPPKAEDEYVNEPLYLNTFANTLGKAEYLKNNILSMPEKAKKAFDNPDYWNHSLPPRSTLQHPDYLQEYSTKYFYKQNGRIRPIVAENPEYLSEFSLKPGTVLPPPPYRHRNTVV
T2 sequence (Q8N4C8 whole entry): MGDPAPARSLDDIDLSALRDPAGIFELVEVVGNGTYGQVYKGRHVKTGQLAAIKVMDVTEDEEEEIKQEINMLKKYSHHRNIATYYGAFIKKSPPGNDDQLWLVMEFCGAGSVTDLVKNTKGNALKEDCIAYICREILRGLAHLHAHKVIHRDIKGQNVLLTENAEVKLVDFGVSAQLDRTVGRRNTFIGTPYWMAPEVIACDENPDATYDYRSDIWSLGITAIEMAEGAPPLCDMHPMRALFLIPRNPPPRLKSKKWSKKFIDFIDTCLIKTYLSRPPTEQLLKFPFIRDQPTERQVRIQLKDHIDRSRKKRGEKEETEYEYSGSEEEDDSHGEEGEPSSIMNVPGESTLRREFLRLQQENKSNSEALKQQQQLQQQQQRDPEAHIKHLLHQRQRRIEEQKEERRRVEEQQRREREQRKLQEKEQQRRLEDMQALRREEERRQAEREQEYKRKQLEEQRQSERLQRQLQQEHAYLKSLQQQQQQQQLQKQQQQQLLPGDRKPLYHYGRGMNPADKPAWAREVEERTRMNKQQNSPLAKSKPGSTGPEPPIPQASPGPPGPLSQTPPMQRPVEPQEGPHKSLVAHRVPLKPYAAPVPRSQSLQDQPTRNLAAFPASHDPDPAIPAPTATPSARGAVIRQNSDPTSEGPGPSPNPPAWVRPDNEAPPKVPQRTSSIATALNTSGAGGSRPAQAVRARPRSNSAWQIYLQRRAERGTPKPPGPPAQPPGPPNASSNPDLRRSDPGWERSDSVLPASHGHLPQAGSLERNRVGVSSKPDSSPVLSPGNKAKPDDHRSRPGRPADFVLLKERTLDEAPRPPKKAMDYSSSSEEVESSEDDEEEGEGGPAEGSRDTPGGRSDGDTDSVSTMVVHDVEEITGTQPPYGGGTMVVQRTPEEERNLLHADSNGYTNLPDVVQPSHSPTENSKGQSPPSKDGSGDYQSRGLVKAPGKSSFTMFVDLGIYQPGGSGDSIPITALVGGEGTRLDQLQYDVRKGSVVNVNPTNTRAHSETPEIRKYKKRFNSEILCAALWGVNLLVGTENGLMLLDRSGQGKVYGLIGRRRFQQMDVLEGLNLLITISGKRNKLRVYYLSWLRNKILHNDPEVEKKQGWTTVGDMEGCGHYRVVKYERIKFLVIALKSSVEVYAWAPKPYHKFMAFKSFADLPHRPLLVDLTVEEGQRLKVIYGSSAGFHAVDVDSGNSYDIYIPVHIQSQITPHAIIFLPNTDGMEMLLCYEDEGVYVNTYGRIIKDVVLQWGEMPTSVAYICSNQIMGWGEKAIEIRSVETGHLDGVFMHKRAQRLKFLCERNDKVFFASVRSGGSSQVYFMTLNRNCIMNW

Take `Nc1nccc(-c2c(-c3ccc(F)cc3)ncn2C2CCC(F)(F)CC2)n1` [ZH3-138, 4-(1-(4,4-Difluorocyclohexyl)-4-(4-fluorophenyl)-1H-imidazol-5-yl)pyrimidin-2-amine]: the IC50 came to 9.98e-06 M at ERBB4/HER4 and 1.15e-06 M at MINK/MINK1. Besides, the “supernatant concentrations of inflammatory biomarkers (IL-6, IL-8, GM-CSF)” value in test [1] is reported as “ability to reduce supernatant concentrations of other inflammatory biomarkers”.
